From patent US6423869B1, “Polyol-amino acid compounds having anti-helicobacter pylori activity” (Takeda Chemical Industries, Inc., priority 1997, dated 2002)
≈ marks a conversion by molar mass, not a printed value. Values belong to the compound of their own block, whether it stands above or below them.

Key:
[1] = test system: gram-negative bacteria; details: cited from earlier work
[2] = test system: Helicobacter pylori TN2GF4; assay: Gastric infection in mongolian gerbils, repetitive administration; format: in vivo
Experimental: Five-week-old MON/Jms/Gbs mongolian gerbils were inoculated intragastrically with 10^7.58 CFU of Helicobacter pylori TN2GF4. Four weeks after infection, a compound of the Example 47, suspended in 0.5% methyl cellulose, was administered orally at a dose of 30 mg/kg twice daily for 2 days. The animals were killed on the day after the final treatment. Stomachs were removed and homogenized with 3 ml of brucella broth, and the bacterial count in the homogenates was determined by serial dilution and titration on modified Skirrow's plates. The plates were incubated at 37° C. for 4 days in a microaerobic atmosphere prior to counting. No detectable Helicobacter pylori in the stomach on the day after final treatment was defined as clearance. Effect of repetitive administration of a compound of the Example 47 against gastric infection caused by H. pylori TN2GF4 in MON/JmsIGbs mongolian gerbils

[3] = test system: Helicobacter pylori (NCTC 11637); assay: In vitro antibacterial test, agar dilution method (MIC); format: cell-based; details: NCTC11637, 96 h, 7% horse blood-Brucella agar, 37° C., 4 days, read-out: MIC (minimal inhibitory concentration)
[4] = test system: Helicobacter pylori TN2F4; assay: In vivo antibacterial test in infected mice; details: mice (Crj: ICR), 50 mg/kg orally twice daily for 2 days, cleared/total (%), hydrochloride
Experimental: In vivo Antibacterial Test
Mice (Crj: ICR, male, aged 5 weeks) were deprived of food for 20 hours and 6.17×10^7 CFU/mouse of Helicobacter pylori TN2F4 was inoculated into the stomach. Starting 11 days after infection, 50 mg/kg of the test compound suspended in 0.5% methyl cellulose/water was adminstered orally twice. daily, in the morning and evening, for 2 consecutive days. On the day following the last dose, the stomach was isolated from the infected mouse and homogenized and a 10-fold dilution series of the homogenate was inoculated on activated charcoal-modified Skirrow medium. Cultivation was carried out microaerobically at 37° C. for 4 days and the eradication rate was determined according to growth of the bacteria.
The number of bacteria was expressed in mean±standard error and the statistical analysis was made in comparison with the control group by the Dunnett method.

[5] = 30 mg/kg twice daily for 2 days

Structure (SMILES): NCC1OC(OC2C(N)CC(NC(=O)C(O)C(O)C(O)C(N)CO)C(O)C2OC2OC(CO)C(O)C2O)C(N)C(O)C1O (stereo not shown)
- activity against gram-negative bacteria [1]: active against gram-negative bacteria

Structure (SMILES): C=CC[C@H](N)C(=O)N[C@@H](CO)[C@@H](O)[C@@H](O)[C@H](O)C(=O)N[C@@H](CC(=O)O)c1ccccc1 [Example 47, (S)-3-[(2S,3R,4R,5S)-5-((S)-2-amino-4-pentenoyl)amino-2,3,4,6-tetrahydroxyhexanoyl]amino-3-phenylpropionic acid]
- clearance attained (gerbils cleared out of total) [2, 5]: 2 out of 4
- number of infecting organism [2, 5]: decreased the number of infecting organism
- Bacterial recovery Log CFU/gastric wall Mean ± SE ([2]; MON/Jms/Gbs mongolian gerbils, 30 mg/kg orally twice daily for 2 days): 2.23 ± 0.44 Log CFU/gastric wall

- MIC [3]: 0.025 µg/mL (≈ 0.0382 µM)
Structure (SMILES): CC(C)C[C@H](NC(=O)[C@@H](NC(=O)[C@@H](N)C(C)C)C(C)C)C(=O)N[C@@H](CO)[C@@H](O)[C@@H](O)[C@H](O)C(=O)N[C@@H](CC(=O)O)c1ccccc1 [HC-70I, (S)-3-[(2S,3R,4R,5S)-2,3,4,6-tetrahydroxy-5-(L-valyl-L-valyl-L-leucyl)aminohexanoyl]amino-3-phenylpropionic acid]

- MIC [3]: 0.025 µg/mL (≈ 0.0451 µM)
Structure (SMILES): CC(C)C[C@H](NC(=O)[C@@H](N)C(C)C)C(=O)N[C@@H](CO)[C@@H](O)[C@@H](O)[C@H](O)C(=O)N[C@@H](CC(=O)O)c1ccccc1 [HC-70II, (S)-3-[(2S,3R,4R,5S)-2,3,4,6-tetrahydroxy-5-(L-valyl-L-leucyl)aminohexanoyl]amino-3-phenylpropionic acid]

Structure (SMILES): CC(C)C[C@H](NC(=O)[C@@H](N)C(C)C)C(=O)N[C@@H](CO)[C@@H](O)[C@@H](O)[C@H](O)C(=O)N[C@@H](CC(=O)O)c1ccccc1.Cl [HC-70II.HCl, (S)-3-[(2S,3R,4R,5S)-2,3,4,6-tetrahydroxy-5-(L-valyl-L-leucyl)aminohexanoyl]amino-3-phenylpropionate hydrochloride]
- Clearance rate (%) [4]: 100%
